In the NIST ThermoML archive (doi:10.1021/acs.jced.8b00125):
Numbers after ± are expanded uncertainties.

Conditions: Liquid, Closed cell (Static) method

vapor or sublimation pressure (303.15 K) | vapor or sublimation pressure (313.15 K) | vapor or sublimation pressure (323.15 K) | vapor or sublimation pressure (333.15 K) | vapor or sublimation pressure (343.15 K) | vapor or sublimation pressure (353.15 K) | vapor or sublimation pressure (363.15 K) | vapor or sublimation pressure (373.15 K) | vapor or sublimation pressure (383.15 K) | vapor or sublimation pressure (393.15 K) | SMILES
16.4 ± 1 kPa | 24.7 ± 1 kPa | 36.4 ± 1 kPa | 52 ± 1.1 kPa | 72.5 ± 1.1 kPa | – | – | – | – | – | C1CCCCC1 [cyclohexane]
2.1 ± 1 kPa | 3.7 ± 1 kPa | 6 ± 1 kPa | 9.3 ± 1 kPa | 13.9 ± 1 kPa | 20.4 ± 1 kPa | 28.9 ± 1 kPa | 40.3 ± 1 kPa | 54.8 ± 1.1 kPa | 73.2 ± 1.1 kPa | CCC1CCCCC1 [ethylcyclohexane]
– | – | – | – | 0.4 kPa | 0.7 ± 1 kPa | 1.2 ± 1 kPa | 2 ± 1 kPa | 3.2 ± 1 kPa | 4.9 ± 1 kPa | CCCCCCCCCCCC [dodecane]
0.2 kPa | 0.6 ± 1 kPa | 1 ± 1 kPa | 1.7 ± 1 kPa | 2.7 ± 1 kPa | 4.3 ± 1 kPa | 6.6 ± 1 kPa | 9.9 ± 1 kPa | 14.4 ± 1 kPa | 20.6 ± 1 kPa | CCCCCCCCCC [decane]
7.9 ± 1 kPa | 12.4 ± 1 kPa | 19 ± 1 kPa | 28.2 ± 1 kPa | 40.6 ± 1 kPa | 57.1 ± 1.1 kPa | – | – | – | – | CCCCCCC [heptane]
7.9 ± 1 kPa | 12.3 ± 1 kPa | 18.5 ± 1 kPa | 27.1 ± 1 kPa | 38.7 ± 1 kPa | 53.8 ± 1.1 kPa | 73.3 ± 1.1 kPa | – | – | – | CC1CCCCC1 [methylcyclohexane]
